ChEMBL document CHEMBL5465560, “Selectivity Literature for EUbOPEN Chemogenomic Library” (2024)

Tests used:
[1] = molecular target: T1, Myosin-IIIb (Homo sapiens) (UniProt Q8WXR4); test: Selectivity interaction (KinomeScan (DiscoverX)) EUB0000655a MYO3B; conditions: at 10 µM
T1 sequence (whole entry): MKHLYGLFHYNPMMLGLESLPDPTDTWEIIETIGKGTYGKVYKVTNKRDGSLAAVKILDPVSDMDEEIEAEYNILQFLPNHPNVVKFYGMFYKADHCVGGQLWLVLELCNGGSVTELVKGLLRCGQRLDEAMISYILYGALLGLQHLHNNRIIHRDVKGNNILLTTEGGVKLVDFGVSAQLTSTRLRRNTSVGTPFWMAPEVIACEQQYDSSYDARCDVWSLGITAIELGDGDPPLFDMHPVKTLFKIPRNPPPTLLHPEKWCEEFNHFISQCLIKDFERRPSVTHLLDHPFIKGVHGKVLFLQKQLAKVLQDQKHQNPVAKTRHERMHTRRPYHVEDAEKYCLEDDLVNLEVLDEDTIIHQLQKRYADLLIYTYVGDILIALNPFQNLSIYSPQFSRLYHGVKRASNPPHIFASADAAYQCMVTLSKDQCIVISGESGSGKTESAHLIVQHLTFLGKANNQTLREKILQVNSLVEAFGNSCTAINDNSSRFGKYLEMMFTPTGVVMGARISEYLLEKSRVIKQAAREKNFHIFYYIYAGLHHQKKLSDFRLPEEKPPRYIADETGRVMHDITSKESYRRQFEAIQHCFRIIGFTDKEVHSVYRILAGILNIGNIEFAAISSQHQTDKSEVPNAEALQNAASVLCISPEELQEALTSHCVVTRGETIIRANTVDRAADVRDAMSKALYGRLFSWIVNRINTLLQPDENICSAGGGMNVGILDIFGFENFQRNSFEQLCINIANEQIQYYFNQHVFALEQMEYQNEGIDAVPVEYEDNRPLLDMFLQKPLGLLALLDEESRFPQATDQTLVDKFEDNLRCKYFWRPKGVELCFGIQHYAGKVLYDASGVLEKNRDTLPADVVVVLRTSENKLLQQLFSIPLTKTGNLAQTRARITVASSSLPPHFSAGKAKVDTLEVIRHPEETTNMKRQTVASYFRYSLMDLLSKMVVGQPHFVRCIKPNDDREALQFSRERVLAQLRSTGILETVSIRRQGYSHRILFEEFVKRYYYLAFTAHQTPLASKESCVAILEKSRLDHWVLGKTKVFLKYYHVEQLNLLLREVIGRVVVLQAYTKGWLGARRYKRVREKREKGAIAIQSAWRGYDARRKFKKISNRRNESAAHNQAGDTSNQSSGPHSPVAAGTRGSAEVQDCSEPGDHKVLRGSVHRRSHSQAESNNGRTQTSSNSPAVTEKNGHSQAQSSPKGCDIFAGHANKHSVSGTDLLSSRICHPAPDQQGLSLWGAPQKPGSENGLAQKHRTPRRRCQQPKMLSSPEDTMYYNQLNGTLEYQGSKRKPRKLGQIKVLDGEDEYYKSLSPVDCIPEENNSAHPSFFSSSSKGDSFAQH

[2] = molecular target: Mitogen-activated protein kinase 7 (Homo sapiens) (UniProt Q13164); test: Selectivity interaction (Kinase panel (KiNativ target engagement assay in Jurkat cells)) EUB0001635a MAPK7; type: cell-based; conditions: Selectivity number of off-targets 0.0, Selectivity number of targets 233.0, Source Knowledge https://www.sciencedirect.com/science/article/pii/S2451945619300674?via%3Dihub, at 1 µM
[3] = molecular target: Cyclin-dependent kinase 14 (Homo sapiens) (UniProt O94921); conditions: at 10 µM
[4] = molecular target: T2, Cyclin-dependent kinase 11A (Homo sapiens) (UniProt Q9UQ88); test: Selectivity interaction (ActivX KiNativ screen (kinase selectivity in THP-1 cell lysates)) EUB0000639a CDK11A; type: subcellular; conditions: lysate, at 0.2 µM
T2 sequence (whole entry): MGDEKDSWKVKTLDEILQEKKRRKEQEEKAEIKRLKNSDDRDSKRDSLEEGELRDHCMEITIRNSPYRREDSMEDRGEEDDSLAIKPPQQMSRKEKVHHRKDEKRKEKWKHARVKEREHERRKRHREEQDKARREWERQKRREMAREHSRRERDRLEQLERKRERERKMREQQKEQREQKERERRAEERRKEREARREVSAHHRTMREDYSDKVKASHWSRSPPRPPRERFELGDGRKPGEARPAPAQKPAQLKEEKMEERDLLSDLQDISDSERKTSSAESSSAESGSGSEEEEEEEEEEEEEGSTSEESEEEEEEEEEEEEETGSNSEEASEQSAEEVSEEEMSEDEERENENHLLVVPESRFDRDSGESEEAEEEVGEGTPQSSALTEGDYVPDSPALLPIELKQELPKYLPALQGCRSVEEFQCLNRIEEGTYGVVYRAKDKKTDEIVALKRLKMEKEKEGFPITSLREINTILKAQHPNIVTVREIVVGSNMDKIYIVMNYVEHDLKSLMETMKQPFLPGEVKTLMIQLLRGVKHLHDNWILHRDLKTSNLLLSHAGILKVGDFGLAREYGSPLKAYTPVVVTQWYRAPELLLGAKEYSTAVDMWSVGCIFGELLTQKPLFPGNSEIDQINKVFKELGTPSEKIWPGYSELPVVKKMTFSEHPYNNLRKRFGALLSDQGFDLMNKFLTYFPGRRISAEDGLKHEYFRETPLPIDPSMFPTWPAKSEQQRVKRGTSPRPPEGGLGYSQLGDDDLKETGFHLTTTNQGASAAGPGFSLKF

[5] = molecular target: T3, Serine/threonine-protein kinase ULK3 (Homo sapiens) (UniProt Q6PHR2); test: Selectivity interaction (ActivX KiNativ screen (kinase selectivity in THP-1 cell lysates)) EUB0000639a ULK3; type: subcellular; conditions: lysate, at 0.01 µM
T3 sequence (whole entry): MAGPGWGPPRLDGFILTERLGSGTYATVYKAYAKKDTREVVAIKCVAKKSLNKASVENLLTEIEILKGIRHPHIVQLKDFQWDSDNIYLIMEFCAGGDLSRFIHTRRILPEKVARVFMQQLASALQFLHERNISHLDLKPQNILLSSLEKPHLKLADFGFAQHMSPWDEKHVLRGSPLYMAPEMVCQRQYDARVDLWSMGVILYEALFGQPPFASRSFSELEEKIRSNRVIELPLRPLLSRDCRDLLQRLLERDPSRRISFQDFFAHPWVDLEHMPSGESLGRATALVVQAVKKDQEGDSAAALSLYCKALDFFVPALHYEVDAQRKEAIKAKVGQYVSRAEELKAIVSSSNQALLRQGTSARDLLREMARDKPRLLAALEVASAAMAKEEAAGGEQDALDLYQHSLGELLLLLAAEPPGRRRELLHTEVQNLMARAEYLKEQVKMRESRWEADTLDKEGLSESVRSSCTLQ

[6] = molecular target: Ribosomal protein S6 kinase alpha-5 (Homo sapiens) (UniProt O75582); test: Selectivity interaction (KinomeScan (DiscoverX)) EUB0000045b RPS6KA5
[7] = molecular target: Ribosomal protein S6 kinase alpha-5 (Homo sapiens) (UniProt O75582); test: Selectivity interaction (ActivX KiNativ screen (ex vivo kinase selectivity in human PBMCs)) EUB0001619a RPS6KA5; type: cell-based; conditions: PBMC, at 1 µM

Ribosomal protein S6 kinase alpha-5 (Homo sapiens), sequence (O75582 whole entry, looked up): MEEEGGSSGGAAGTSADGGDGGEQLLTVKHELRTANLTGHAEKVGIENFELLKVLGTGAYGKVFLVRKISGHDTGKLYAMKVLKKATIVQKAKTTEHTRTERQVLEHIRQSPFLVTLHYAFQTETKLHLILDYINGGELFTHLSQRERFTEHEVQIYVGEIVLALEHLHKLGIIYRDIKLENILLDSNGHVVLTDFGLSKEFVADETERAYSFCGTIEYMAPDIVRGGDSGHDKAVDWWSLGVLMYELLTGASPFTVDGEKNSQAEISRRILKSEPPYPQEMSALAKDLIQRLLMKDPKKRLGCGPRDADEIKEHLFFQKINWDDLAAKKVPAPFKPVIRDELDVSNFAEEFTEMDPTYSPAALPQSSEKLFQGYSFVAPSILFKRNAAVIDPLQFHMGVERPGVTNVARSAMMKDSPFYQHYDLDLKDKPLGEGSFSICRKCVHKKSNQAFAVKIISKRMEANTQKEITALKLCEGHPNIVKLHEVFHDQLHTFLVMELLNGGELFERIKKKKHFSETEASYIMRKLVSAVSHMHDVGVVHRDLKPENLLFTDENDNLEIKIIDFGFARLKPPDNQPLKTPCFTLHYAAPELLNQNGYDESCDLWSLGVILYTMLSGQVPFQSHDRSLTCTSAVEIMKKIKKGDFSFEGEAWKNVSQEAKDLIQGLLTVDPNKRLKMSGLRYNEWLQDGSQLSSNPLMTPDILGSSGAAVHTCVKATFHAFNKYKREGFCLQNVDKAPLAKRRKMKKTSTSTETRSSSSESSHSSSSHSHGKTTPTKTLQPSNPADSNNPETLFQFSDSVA
Mitogen-activated protein kinase 7 (Homo sapiens), sequence (Q13164 2-816 limits assumed): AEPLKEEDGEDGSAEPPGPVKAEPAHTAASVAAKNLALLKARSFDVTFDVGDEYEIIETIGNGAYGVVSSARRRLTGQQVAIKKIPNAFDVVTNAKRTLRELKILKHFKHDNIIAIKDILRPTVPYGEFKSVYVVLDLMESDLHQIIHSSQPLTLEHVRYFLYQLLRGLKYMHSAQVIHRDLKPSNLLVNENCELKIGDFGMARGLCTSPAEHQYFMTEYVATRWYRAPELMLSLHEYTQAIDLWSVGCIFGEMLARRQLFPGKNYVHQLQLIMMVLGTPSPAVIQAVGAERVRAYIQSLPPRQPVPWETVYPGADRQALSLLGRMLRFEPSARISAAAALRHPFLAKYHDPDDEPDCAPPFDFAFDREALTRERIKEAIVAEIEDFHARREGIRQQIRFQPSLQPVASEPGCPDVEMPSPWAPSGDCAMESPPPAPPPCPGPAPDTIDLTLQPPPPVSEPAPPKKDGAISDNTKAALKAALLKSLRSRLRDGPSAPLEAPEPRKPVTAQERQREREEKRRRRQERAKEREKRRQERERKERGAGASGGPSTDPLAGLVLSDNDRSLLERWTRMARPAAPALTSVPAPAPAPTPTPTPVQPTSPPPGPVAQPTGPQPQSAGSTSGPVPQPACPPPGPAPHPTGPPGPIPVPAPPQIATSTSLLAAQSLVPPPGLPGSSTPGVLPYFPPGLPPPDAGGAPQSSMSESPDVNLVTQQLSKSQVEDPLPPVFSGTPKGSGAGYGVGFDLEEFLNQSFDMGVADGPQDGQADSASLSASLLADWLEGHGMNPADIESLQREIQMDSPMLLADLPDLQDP
Cyclin-dependent kinase 14 (Homo sapiens), sequence (O94921 whole entry): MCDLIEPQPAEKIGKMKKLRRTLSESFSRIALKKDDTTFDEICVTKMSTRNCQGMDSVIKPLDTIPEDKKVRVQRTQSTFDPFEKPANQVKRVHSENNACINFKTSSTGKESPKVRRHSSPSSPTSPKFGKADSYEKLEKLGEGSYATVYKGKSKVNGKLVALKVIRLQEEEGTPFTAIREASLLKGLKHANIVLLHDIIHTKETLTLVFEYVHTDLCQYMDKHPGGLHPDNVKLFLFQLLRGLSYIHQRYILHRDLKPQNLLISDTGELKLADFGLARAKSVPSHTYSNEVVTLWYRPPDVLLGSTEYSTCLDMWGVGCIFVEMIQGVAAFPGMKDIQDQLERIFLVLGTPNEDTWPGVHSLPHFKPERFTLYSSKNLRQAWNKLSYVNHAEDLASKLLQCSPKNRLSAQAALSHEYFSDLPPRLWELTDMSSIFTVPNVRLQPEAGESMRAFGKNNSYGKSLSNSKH

Q: For `CN(C)CCOc1ccc(-c2nc(-c3ccncc3)c(-c3ccc4c(c3)CC/C4=N\O)[nH]2)cc1`, which % of control [1] is on record?
A: 81%

Q: Which % of engagement [2] does the source give for `C=CC(=O)Nc1ccc(C(=O)Nc2[nH]nc3c2CN(C(=O)N[C@H](CN(C)C)c2ccccc2)C3(C)C)cc1` here?
A: -3.1%

Q: With `Cc1cc([C@@H](C)Nc2ccccc2C(=O)O)c2nc(N3CCOCC3)cc(=O)n2c1` [AZD-6482] as the compound, how does the % of control [3] read?
A: 100%

Q: For `CC[C@@H]1[C@H](F)C(=O)N[C@@H]1COc1nccc2cc(C(N)=O)c(OC)cc12` [ZIMLOVISERTIB], which % of inhibition [4] is on record?
A: 7.2%

Q: And the % of inhibition [5]?
A: -8.9%

Q: How did the % of control ([6]; at 1 µM) turn out when `C=CC(=O)Nc1cc(-n2c(=O)ccc3cnc4ccc(-c5ccc(NS(C)(=O)=O)cc5)cc4c32)ccc1C` was run?
A: 100%

Q: And the % of control ([6]; at 10 µM)?
A: 100%

Q: How did the % of inhibition [7] turn out when `N#Cc1cccc(-c2c[nH]c3ncnc(N4CCOCC4)c23)c1` was run?
A: 20%
